Test results from ChEMBL document CHEMBL3861949 (Medchemcomm, 2016).

Tests used:
[1] = Cytotoxicity against human MRC5 cells; assay type: toxicity, cell-based
[2] = Inhibition of Plasmodium falciparum Lysyl-tRNA ligase expressed in Escherichia coli Tuner (DE3) cells assessed as suppression of L-lysine-tRNA(Lys) formation in presence of AMP-Alexa633 tracer after 4 hrs by fluorescence polarization assay
Saccharomyces cerevisiae [3] = assay: Ratio of IC50 for Saccharomyces cerevisiae wild type KRS1 to IC50 for Saccharomyces cerevisiae KRS1 Gln324Val/Thr340Ser mutant
[4] = Selectivity ratio of IC50 for human Lysyl-tRNA ligase to IC50 for Plasmodium falciparum Lysyl-tRNA ligase
Saccharomyces cerevisiae [5] = assay: Ratio of IC50 for Saccharomyces cerevisiae wild type KRS1 to IC50 for Saccharomyces cerevisiae KRS1 Thr340Ser mutant
Saccharomyces cerevisiae [6] = assay: Ratio of IC50 for Saccharomyces cerevisiae wild type KRS1 to IC50 for Saccharomyces cerevisiae KRS1 Gln324Val mutant
Plasmodium berghei = assay: Antimalarial activity against liver stage of Plasmodium berghei ANKA; assay type: functional
[7] = Inhibition of bovine liver TrpRS assessed as suppression of L-[5-3H]tryptophanyl-tRNA formation after 10 mins by liquid scintillation counting method; design: species or system Bos taurus
[8] = Inhibition of Escherichia coli TrpRS assessed as suppression of L-[5-3H]tryptophanyl-tRNA formation after 10 mins by liquid scintillation counting method
Isoleucine--tRNA ligase [9] = target: T1, Isoleucine--tRNA ligase (Thermus thermophilus (strain HB8 / ATCC 27634 / DSM 579), UniProt P56690); assay: Inhibition of recombinant Thermus thermophilus HB8 wild type IleRS assessed as suppression of L-[14C]isoleucyl-tRNA(Ile) formation
T1 sequence (P56690 whole entry): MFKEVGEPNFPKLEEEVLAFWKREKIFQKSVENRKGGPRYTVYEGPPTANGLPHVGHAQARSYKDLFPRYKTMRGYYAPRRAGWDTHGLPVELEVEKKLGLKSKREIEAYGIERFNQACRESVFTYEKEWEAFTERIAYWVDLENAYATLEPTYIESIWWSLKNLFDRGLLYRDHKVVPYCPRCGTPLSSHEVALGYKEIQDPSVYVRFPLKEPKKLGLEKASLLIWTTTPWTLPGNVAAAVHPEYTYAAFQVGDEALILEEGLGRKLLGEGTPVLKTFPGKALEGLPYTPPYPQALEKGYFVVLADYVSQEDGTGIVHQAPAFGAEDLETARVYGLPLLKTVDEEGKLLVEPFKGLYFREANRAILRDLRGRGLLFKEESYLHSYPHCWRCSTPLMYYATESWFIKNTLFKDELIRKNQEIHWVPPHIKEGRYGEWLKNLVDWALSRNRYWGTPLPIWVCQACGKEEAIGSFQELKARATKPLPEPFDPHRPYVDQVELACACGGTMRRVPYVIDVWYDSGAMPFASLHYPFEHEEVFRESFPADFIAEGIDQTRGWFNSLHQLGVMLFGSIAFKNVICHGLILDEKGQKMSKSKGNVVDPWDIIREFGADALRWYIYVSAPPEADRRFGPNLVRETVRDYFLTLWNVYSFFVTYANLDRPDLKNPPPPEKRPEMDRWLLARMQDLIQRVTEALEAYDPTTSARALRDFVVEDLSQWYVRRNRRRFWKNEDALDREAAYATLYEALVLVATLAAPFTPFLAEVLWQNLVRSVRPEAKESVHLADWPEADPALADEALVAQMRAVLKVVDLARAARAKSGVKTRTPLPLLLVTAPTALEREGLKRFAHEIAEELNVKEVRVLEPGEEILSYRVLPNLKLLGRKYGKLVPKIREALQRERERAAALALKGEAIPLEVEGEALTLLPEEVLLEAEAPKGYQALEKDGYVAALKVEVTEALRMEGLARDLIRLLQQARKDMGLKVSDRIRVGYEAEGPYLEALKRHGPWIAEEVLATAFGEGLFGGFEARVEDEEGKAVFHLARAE

Isoleucine--tRNA ligase [10] = target: Isoleucine--tRNA ligase (Thermus thermophilus (strain HB8 / ATCC 27634 / DSM 579), UniProt P56690, H581N/L583F); assay: Inhibition of recombinant Thermus thermophilus HB8 IleRS H581N/L583F double mutant assessed as suppression of L-[14C]isoleucyl-tRNA(Ile) formation
Isoleucine--tRNA ligase [11] = target: Isoleucine--tRNA ligase (Thermus thermophilus (strain HB8 / ATCC 27634 / DSM 579), UniProt P56690, H581L/L583H); assay: Inhibition of recombinant Thermus thermophilus HB8 IleRS H581L/L583H double mutant assessed as suppression of L-[14C]isoleucyl-tRNA(Ile) formation
Isoleucine--tRNA ligase [12] = target: Isoleucine--tRNA ligase (Thermus thermophilus (strain HB8 / ATCC 27634 / DSM 579), UniProt P56690, L583F); assay: Inhibition of recombinant Thermus thermophilus HB8 IleRS L583F mutant assessed as suppression of L-[14C]isoleucyl-tRNA(Ile) formation
Isoleucine--tRNA ligase [13] = target: Isoleucine--tRNA ligase (Thermus thermophilus (strain HB8 / ATCC 27634 / DSM 579), UniProt P56690, H581S/L583I); assay: Inhibition of recombinant Thermus thermophilus HB8 IleRS H581S/L583I double mutant assessed as suppression of L-[14C]isoleucyl-tRNA(Ile) formation
Isoleucine--tRNA ligase (Thermus thermophilus (strain HB8 / ATCC 27634 / DSM 579), UniProt P56690, H581S/L583I), sequence (P56690 whole entry H581S/L583I): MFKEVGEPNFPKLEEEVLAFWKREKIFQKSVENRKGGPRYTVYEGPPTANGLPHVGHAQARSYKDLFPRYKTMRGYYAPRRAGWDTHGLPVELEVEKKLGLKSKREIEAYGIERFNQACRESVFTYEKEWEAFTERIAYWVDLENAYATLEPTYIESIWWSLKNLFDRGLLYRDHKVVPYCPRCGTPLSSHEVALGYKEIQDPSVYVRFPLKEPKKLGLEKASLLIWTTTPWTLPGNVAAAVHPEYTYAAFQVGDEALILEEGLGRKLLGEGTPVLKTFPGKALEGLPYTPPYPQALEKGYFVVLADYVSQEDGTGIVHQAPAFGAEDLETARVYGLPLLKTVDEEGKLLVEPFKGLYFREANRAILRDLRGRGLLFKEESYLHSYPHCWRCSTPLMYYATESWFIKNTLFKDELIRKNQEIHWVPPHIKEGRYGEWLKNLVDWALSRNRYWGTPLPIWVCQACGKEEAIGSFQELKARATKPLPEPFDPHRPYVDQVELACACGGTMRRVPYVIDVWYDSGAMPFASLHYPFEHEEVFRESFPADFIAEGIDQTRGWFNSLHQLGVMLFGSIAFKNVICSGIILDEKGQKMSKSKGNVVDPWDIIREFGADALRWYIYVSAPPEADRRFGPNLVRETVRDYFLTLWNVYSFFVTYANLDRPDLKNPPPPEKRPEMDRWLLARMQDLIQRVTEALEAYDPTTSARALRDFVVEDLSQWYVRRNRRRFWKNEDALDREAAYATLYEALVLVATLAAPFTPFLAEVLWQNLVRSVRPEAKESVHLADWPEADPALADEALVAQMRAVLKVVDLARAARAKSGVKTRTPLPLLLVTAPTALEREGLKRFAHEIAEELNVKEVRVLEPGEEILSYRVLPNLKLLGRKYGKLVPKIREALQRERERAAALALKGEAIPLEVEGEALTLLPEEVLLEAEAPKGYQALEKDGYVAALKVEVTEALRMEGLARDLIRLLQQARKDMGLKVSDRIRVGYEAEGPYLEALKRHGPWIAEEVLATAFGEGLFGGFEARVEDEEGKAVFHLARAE

Isoleucine--tRNA ligase (Thermus thermophilus (strain HB8 / ATCC 27634 / DSM 579), UniProt P56690, H581N/L583F), sequence (P56690 whole entry H581N/L583F): as the sequence (P56690 whole entry H581S/L583I) above, with S581N, I583F counted along it
Isoleucine--tRNA ligase (Thermus thermophilus (strain HB8 / ATCC 27634 / DSM 579), UniProt P56690, H581L/L583H), sequence (P56690 whole entry H581L/L583H): as the sequence (P56690 whole entry H581S/L583I) above, with S581L, I583H counted along it
Isoleucine--tRNA ligase (Thermus thermophilus (strain HB8 / ATCC 27634 / DSM 579), UniProt P56690, L583F), sequence (P56690 whole entry L583F): as the sequence (P56690 whole entry H581S/L583I) above, with S581H, I583F counted along it

## C[C@@H]1C[C@H](C)C[C@H](C)[C@@H](O)CC(=O)O[C@H]([C@@H]2CCC[C@H]2C(=O)OCc2cn(CSc3ccccc3)nn2)C/C=C/C=C(/C#N)[C@H](O)[C@@H](C)C1
[1]
  Activity: 16800 ng/mL

## C[C@H]1CCC[C@H](CC2Cc3cc(O)cc(O)c3C(=O)O2)O1 (stereo partly specified)
[2]
  IC50: 0.04 µM
Saccharomyces cerevisiae [3]
  Ratio IC50: 38.7
[4]
  Ratio IC50: > 100
Saccharomyces cerevisiae [5]
  Ratio IC50: 10.4
Saccharomyces cerevisiae [6]
  Ratio IC50: 5.7

## O=c1c2cc(Cl)c(Br)cc2ncn1C[C@@H](O)C[C@H]1NCCC[C@@H]1O
Plasmodium berghei
  EC50: 0.014 µM

## C[C@@H]1C[C@H](C)C[C@H](C)[C@@H](O)CC(=O)O[C@H]([C@@H]2CCC[C@H]2C(=O)O)C/C=C/C=C(/C#N)[C@H](O)[C@@H](C)C1 [BORRELIDIN]
[1]
  Activity: 201 ng/mL

## O=C(CC1NCCCC1O)Cn1cnc2cc(Br)c(Cl)cc2c1=O (stereo unspecified) [HALOFUGINONE]
Plasmodium berghei
  EC50: 0.017 µM

## CNC1=NC(=O)[C@H]([C@H](C)c2c[nH]c3ccccc23)O1 [INDOMYCIN]
[7]
  IC50: 4040 µM
[8]
  IC50: 0.00925 µM

## C/C(=C\C(=O)OCCCCCCCCC(=O)O)C[C@@H]1OC[C@H](C[C@@H]2O[C@H]2[C@@H](C)[C@H](C)O)[C@@H](O)[C@H]1O [MUPIROCIN]
Isoleucine--tRNA ligase [9]
  Ki: 0.25 µM
Isoleucine--tRNA ligase [10]
  Ki: 2.73 µM
Isoleucine--tRNA ligase [11]
  Ki: 2.31 µM
Isoleucine--tRNA ligase [12]
  Ki: 0.06 µM
Isoleucine--tRNA ligase [13]
  Ki: 15 µM
